Results as given in patent US11963959B2, “Inhibitors for coronavirus” (Southwest Research Institute, priority 2021, dated 2024).
Read-outs that look alike come from different tables or passages of the source.

Assays:
in vitro = settings: African green monkey
[1] = tested on: SARS-CoV-2 (USA-WA1/2020); test: microbe, parasite or virus in culture; type: cell-based; settings: for EC50 / EC90: Severe acute respiratory syndrome coronavirus 2, Vero C1008; for SI: selectivity index=CC50/EC50
[2] = PK studies in mice, subcutaneous twice-a-day dosing, plasma and lung; type: in vivo; design: Tmax: unit not given here; settings: for AUC / Cmax / half-life: mouse, sc
Description: In addition to the above, pharmokinetic (PK) studies have been completed on additional representative compounds of the pyyroloquinazolines noted herein. More specifically, pharmokinetic studies were conducted for Compound 8, 7-(2-(fluorobenzyl)-7H-pyrrolo[3,2-f]quinazoline-1,3-diamine having the following structure:
(§1) Reference is therefore made to FIG. 8 which provides the animal (mice) compound concentration versus time plots in blood plasma for dosing of Compound 8 at 10 mg/kg, subcutaneous, twice-a-day, at time points 0, 0.5, 1, 2, 4, 8, 12 hours post dose up to 36 hours. FIG. 9 provides the animal (mice) compound concentration versus time plots also for Compound 8 in the lung at 10 mg/kg, subcutaneous, twice-a-day, at time points 0, 0.5, 1, 2, 4, 8, 12 post dose up to 36 hours.
as §1, with “FIG. 10” for “FIG. 8”, “Compound 9” for “Compound 8”, “at 25” for “at 10”, “FIG. 11” for “FIG. 9”
(§2) Reference is made to FIG. 12 which provides the animal (mice) compound concentration versus time plots in blood plasma for dosing of Compound 10 at 25 mg/kg, subcutaneous, twice-a-day, at time points 0, 0.5, 1, 2, 4, 8, 12 hours post dose up to 36 hours. FIG. 13 provides the animal (mice) compound concentration versus time plots also for Compound 10 in the lung at 25 mg/kg, subcutaneous, twice-a-day, at time points 0, 0.5, 1, 2, 4, 8, 12 hours post dose up to 36 hours.
Reference is made to FIG. 14 which provides the animal (mice) compound concentration versus time plots in blood plasma for dosing of Compound 11 at 25 mg/kg, subcutaneous, twice-a-day, at time points 0, 0.5, 1, 2, 4, 8, 12 hours post dose up to 36 hours. FIG. 15 provides the animal (mice) compound concentration versus time plots also for Compound 11 in the lung at 25 mg/kg, subcutaneous, twice-a-day, at time points 0, 0.5, 1, 2, 4, 8, 12 hours post does up to 36 hours.
as §2, with “FIG. 16” for “FIG. 12”, “Compound 12 at” for “Compound”, “10” for “10 at 25”, “FIG. 17” for “FIG. 13”, “Compound 12” for “Compound 10”, “at 10” for “at 25”

[3] = Table 1, SARS-CoV-2 strain, VeroE6, two biological replicates and 8 technical replicates, read-out: EC50
[4] = Table 1, SARS-CoV-2 strain, VeroE6, two biological replicates and 8 technical replicates, read-out: EC90
[5] = Table 2, SARS-CoV-2 strain, VeroE6, read-out: EC50
[6] = Table 2, SARS-CoV-2 strain, VeroE6, read-out: EC90
[7] = 10 mg/kg subcutaneous twice-a-day
[8] = lung, 10 mg/kg subcutaneous twice-a-day
[9] = plasma, 10 mg/kg subcutaneous twice-a-day
[10] = Table 7, SARS-CoV-2 strain, VeroE6, read-out: EC50
[11] = Table 7, SARS-CoV-2 strain, VeroE6, read-out: EC90
[12] = footnote of PK table, read-out: EC50
[13] = footnote of PK table, read-out: EC90
[14] = 25 mg/kg subcutaneous twice-a-day
[15] = lung, 25 mg/kg subcutaneous twice-a-day
[16] = plasma, 25 mg/kg subcutaneous twice-a-day

SMILES: Cc1ccccc1Cn1ccc2c3c(N)nc(N)nc3ccc21 [Compound 2, 7-(2-methylbenzyl)-7H-pyrrolo[3,2-f]quinazoline-1,3-diamine]
- CC50 (in vitro): 4940 ± 550 nM
- EC50 [1, 3]: 20 ± 4 nM
- EC90 [1, 4]: 32 ± 50 nM
- SI ([1]; Table 1): 245

SMILES: O=C(c1sc(-c2ccccc2)nc1-c1ccccc1)N1C[C@H]2CNC[C@H]2C1 [Compound 5, (2,4-diphenylthiazol-5-yl)((3aR,6aS)-hexahydropyrrolo[3,4-c]pyrrol-2(1H)-yl)methanone]
- CC50 (in vitro): 79700 nM
- EC50 [1, 5]: 8300 nM
- EC90 [1, 6]: 75000 nM
- SI ([1]; Table 2): 9.6

SMILES: C=CCn1ccc2c3c(N)nc(N)nc3ccc21 [Compound 4, 7-allyl-7H-pyrrolo[3,2-f]quinazoline-1,3-diamine]
- CC50 (in vitro): > 30000 nM
- EC50 [1, 3]: 470 ± 210 nM
- EC90 [1, 4]: 850 ± 460 nM
- SI ([1]; Table 1): >63.8

SMILES: Cc1cc2c3c(N)nc(N)nc3ccc2n1Cc1ccc(C#N)cc1 [Compound 3, 4-((1,3-diamino-8-methyl-7H-pyrrolo[3,2-f]quinazolin-7-yl)methyl)benzonitrile]
- CC50 (in vitro): 6410 ± 700 nM
- EC50 [1, 3]: 13 ± 5 nM
- EC90 [1, 4]: 30 ± 20 nM
- SI ([1]; Table 1): 477.3

SMILES: Nc1nc(N)c2c(ccc3c2ccn3CC2CCCCC2)n1 [Compound 12, 7-(cyclohexylmethyl)-7H-pyrrolo[3,2-f]quinazoline-1,3-diamine]
- tolerability [2, 7]: relatively well-tolerated
- Time > EC90 [2, 8]: 100%
- Tmax [2, 8]: 1.4
- AUC [2, 8]: 34100 ng·h/mL
- Cmax [2, 8]: 10100 ng/mL
- half-life [2, 8]: 3.1 h
- AUC [2, 9]: 968 ng·h/mL
- Cmax [2, 9]: 348 ng/mL
- half-life [2, 9]: 4.2 h
- Time > EC90 [2, 9]: 64%
- Tmax [2, 9]: 1.4
- CC50 (in vitro): 4910 ± 200 nM
- EC50 [1, 10]: 120 ± 87 nM
- EC90 [1, 11]: 320 ± 320 nM
- EC50 [1, 12]: 0.0177 µg/mL
- EC90 [1, 13]: 0.0325 µg/mL
- SI ([1]; Table 7): 41

SMILES: O=C(c1sc(-c2ccc(Cl)cc2)nc1-c1ccccc1)N1C[C@H]2CNC[C@H]2C1 [Compound 7, (2-(4-chlorophenyl)-4-phenylthiazol-5-yl)((3aR,6aS)-hexahydropyrrolo[3,4-c]pyrrol-2(1H)-yl)methanone]
- CC50 (in vitro): 11000 nM
- EC50 [1, 5]: 4700 nM
- EC90 [1, 6]: 7960 nM
- SI ([1]; Table 2): 2.3

SMILES: Nc1nc(N)c2c(ccc3c2ccn3Cc2ccncc2)n1 [Compound 10, 7-(pyridin-4-ylmethyl)-7H-pyrrolo[3,2-f]quinazoline-1,3-diamine]
- tolerability [2, 14]: relatively well-tolerated
- Time > EC90 [2, 15]: 63%
- Tmax [2, 15]: 1.2
- AUC [2, 15]: 7820 ng·h/mL
- Cmax [2, 15]: 2910 ng/mL
- half-life [2, 15]: 2.7 h
- AUC [2, 16]: 1600 ng·h/mL
- Cmax [2, 16]: 678 ng/mL
- half-life [2, 16]: 2.1 h
- Time > EC90 [2, 16]: 44%
- Tmax [2, 16]: 1.2
- CC50 (in vitro): > 30000 nM
- EC50 [1, 10]: 80 ± 12 nM
- EC90 [1, 11]: 240 ± 110 nM
- EC50 [1, 12]: 0.0813 µg/mL
- EC90 [1, 13]: 0.221 µg/mL
- SI ([1]; Table 7): >375

SMILES: O=C(c1sc(-c2ccccc2)nc1-c1ccc(Cl)cc1)N1C[C@H]2CNC[C@H]2C1 [Compound 6, (4-(4-chlorophenyl)-2-phenylthiazol-5-yl)((3aR,6aS)-hexahydropyrrolo[3,4-c]pyrrol-2(1H)-yl)methanone]
- CC50 (in vitro): 17100 nM
- EC50 [1, 5]: 4200 nM
- EC90 [1, 6]: 13300 nM
- SI ([1]; Table 2): >4.0

SMILES: Nc1nc(N)c2c(ccc3c2ccn3Cc2ccccc2F)n1 [Compound 8]
- tolerability [2, 7]: relatively well-tolerated
- Time > EC90 [2, 8]: 98.3%
- Tmax [2, 8]: 98.3
- AUC [2, 8]: 13000 ng·h/mL
- Cmax [2, 8]: 4140 ng/mL
- half-life [2, 8]: 3.74 h
- AUC [2, 9]: 2140 ng·h/mL
- Cmax [2, 9]: 675 ng/mL
- half-life [2, 9]: 3.1 h
- Time > EC90 [2, 9]: 65%
- Tmax [2, 9]: 1.4
- CC50 (in vitro): 4890 ± 4700 nM
- EC50 [1, 10]: 50 ± 31 nM
- EC90 [1, 11]: 160 ± 142 nM
- EC50 [1, 12]: 0.0246 µg/mL
- EC90 [1, 13]: 0.0799 µg/mL
- SI ([1]; Table 7): 98

SMILES: Nc1nc(N)c2c(ccc3c2ccn3Cc2ccccn2)n1 [Compound 11, 7-(pyridin-2-ylmethyl)-7H-pyrrolo[3,2-f]quinazoline-1,3-diamine]
- tolerability [2, 14]: relatively well-tolerated
- Time > EC90 [2, 15]: 85%
- Tmax [2, 15]: 1.28
- AUC [2, 15]: 14600 ng·h/mL
- Cmax [2, 15]: 3270 ng/mL
- half-life [2, 15]: 3.3 h
- AUC [2, 16]: 1170 ng·h/mL
- Cmax [2, 16]: 348 ng/mL
- half-life [2, 16]: 2.6 h
- Time > EC90 [2, 16]: 45%
- Tmax [2, 16]: 1.6
- CC50 (in vitro): 15500 ± 10600 nM
- EC50 [1, 10]: 120 ± 50 nM
- EC90 [1, 11]: 360 ± 230 nM
- EC50 [1, 12]: 0.0435 µg/mL
- EC90 [1, 13]: 0.142 µg/mL
- SI ([1]; Table 7): 128

SMILES: Nc1nc(N)c2c(ccc3c2ccn3Cc2ccccc2C(F)(F)F)n1 [Compound 1, 7-(2-(trifluoromethyl)benzyl)-7H-pyrrolo[3,2-f]quinazoline-1,3-diamine]
- CC50 (in vitro): 2000 ± 250 nM
- EC50 [1]: 30 ± 10 nM
- EC90 [1]: 70 ± 30 nM
- SI ([1]; Table 1): 66.8

SMILES: Nc1nc(N)c2c(ccc3c2ccn3Cc2cccnc2)n1 [Compound 9, 7-(pyridin-3-ylmethyl)-7H-pyrrolo[3,2-f]quinazoline-1,3-diamine]
- tolerability [2, 14]: relatively well-tolerated
- Time > EC90 [2, 15]: 73%
- Tmax [2, 15]: 1.9
- AUC [2, 15]: 12400 ng·h/mL
- Cmax [2, 15]: 3320 ng/mL
- half-life [2, 15]: 2.8 h
- AUC [2, 16]: 1190 ng·h/mL
- Cmax [2, 16]: 365 ng/mL
- half-life [2, 16]: 2.1 h
- Time > EC90 [2, 16]: 55%
- Tmax [2, 16]: 1.6
- CC50 (in vitro): > 30000 nM
- EC50 [1, 10]: 160 ± 61 nM
- EC90 [1, 11]: 360 ± 193 nM
- EC50 [1, 12]: 0.058 µg/mL
- EC90 [1, 13]: 0.142 µg/mL
- SI ([1]; Table 7): >187
